For four molecules, Kd results are on record in patent US20260176245A1, “MODULATORS OF SORTILIN ACTIVITY” (Vesper Bio ApS, priority 2022, published 2026).

pKd: −log10 of the molar value.

In this experiment the target is T1, Human (6-His) Sortilin (Homo sapiens, UniProt Q99523).
T1 construct: 6-His; purchased RnD Systems
T1 sequence (Q99523 78-755 limits assumed): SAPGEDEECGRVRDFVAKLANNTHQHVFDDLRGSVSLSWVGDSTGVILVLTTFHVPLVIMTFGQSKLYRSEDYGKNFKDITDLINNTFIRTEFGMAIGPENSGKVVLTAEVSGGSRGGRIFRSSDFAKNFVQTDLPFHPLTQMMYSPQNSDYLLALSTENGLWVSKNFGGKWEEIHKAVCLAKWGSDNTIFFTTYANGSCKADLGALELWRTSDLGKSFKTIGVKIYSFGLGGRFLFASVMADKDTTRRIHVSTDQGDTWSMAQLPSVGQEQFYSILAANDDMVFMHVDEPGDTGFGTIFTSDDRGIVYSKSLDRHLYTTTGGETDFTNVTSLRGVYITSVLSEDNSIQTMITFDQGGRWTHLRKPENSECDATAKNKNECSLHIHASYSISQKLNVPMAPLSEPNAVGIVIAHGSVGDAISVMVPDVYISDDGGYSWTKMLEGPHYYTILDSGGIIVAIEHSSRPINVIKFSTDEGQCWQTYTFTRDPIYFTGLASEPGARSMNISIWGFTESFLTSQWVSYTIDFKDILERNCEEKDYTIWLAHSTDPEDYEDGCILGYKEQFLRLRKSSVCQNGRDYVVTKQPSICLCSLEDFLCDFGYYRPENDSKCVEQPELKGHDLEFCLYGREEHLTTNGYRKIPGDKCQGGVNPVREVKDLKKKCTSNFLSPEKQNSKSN
The experiment in a line: Human Sortilin GCI (Grating-Coupled Interferometry) binding assay. The following applies: Creoptix WAVE-RAPID, single concentration, immobilised Human (6-His) Sortilin, 1:1 kinetic binding model; read-out: h-Sortilin GCI KD. The procedure:
The exemplified compounds of the invention were tested in a Grating-Coupled Interferometry (GCI) Sortilin binding assay. The Equilibrium dissociation constant (KD) is a measure of the propensity of a complex (i.e: a ligand and receptor) to dissociate and is used to describe the affinity of an interaction between the constituents of the complex (i.e: a ligand and receptor). The skilled person will recognise that the lower the KD value, the less of the compound needed to achieve the desired effect, and as a result, the chances of undesirable off-target effects are reduced.
Compound affinity was determined by measuring the association and dissociation of compounds to Human (6-His) Sortilin (RnD Systems) using a Creoptix Wave instrument (Creoptix-Malvern Panalytical). Both Human (6-His) Sortilin immobilisation and compound evaluation were performed in HBS-N running buffer: 10 mM HEPES pH 7.4, 150 mM NaCl, 1% DMSO-Cytiva which was filtered and degassed for 15 minutes before use.
A 4PCH WAVEchip (Creoptix-Malvern Panalytical) was conditioned prior to immobilisation using 0.2×HBS-N running buffer with 0.1 M Borate pH 9.0, 1 M NaCl (Xantec Bioanalytics) injected across all flow cells. A buffer exchange was performed to 1×HBS-N running buffer and Human (6-His) Sortilin was immobilised in pH 5.0 Acetate solution (Cytiva) via amine coupling following EDC/NHS (Cytiva) surface activation and then passivated via injection of 50 mM Tris pH 7.4.
Compounds were tested in ‘WAVE-RAPID’ assays at a single concentration (usually: 1 μM, 10 µM or 100 µM) in time-response format (short pulses of increasing duration) using either ‘Weak-Binders’ (Settings: 400 μl/min flow rate, 40 Hz acquisition rate, 5 seconds association time and 20 seconds dissociation time) or ‘Intermediate Binders’ (Settings: 100 μl/min flow rate, 10 Hz acquisition rate, 25 seconds association time and 300 seconds dissociation time) settings. Which was deemed most appropriate was based upon the affinity and kinetics of the compound tested.
DMSO calibration was performed as per manufacturers requirements by injection of running buffer containing DMSO 0.5% above that of the running buffer DMSO (1.5% in that instance) every 20 cycles. All data was double referenced (blank and reference-channel subtracted) with KD values calculated by fitting to a ‘1:1 kinetic’ binding model using ‘WAVEcontrol’ software (Creoptix—Malvern Panalytical).
As to `CC(=O)NCC(=O)N[C@@](C)(CCC(C)(C)C)C(=O)O` [Example 1, 2-(2-acetamidoacetamido)-2,5,5-trimethylhexanoic acid], the pKd was 4.91. The result for `CC(=O)N[C@@H](C)C(=O)N[C@@](C)(CCC(C)(C)C)C(=O)O` [Example 2, (2S)-2-[(2S)-2-acetamidopropanamido]-2,5,5-trimethylhexanoic acid] reads 5.33. Take `CC[C@H](C)[C@H](NC(C)=O)C(=O)N[C@@](C)(CCC(C)(C)C)C(=O)O` [Example 3, (2S)-2-[(2S,3S)-2-acetamido-3-methylpentanamido]-2,5,5-trimethylhexanoic acid]: the pKd was 5.89. In the case of `CC(=O)N[C@@H](Cc1ccccc1)C(=O)N[C@@](C)(CCC(C)(C)C)C(=O)O` [Example 4, (2S)-2-[(2S)-2-acetamido-3-phenylpropanamido]-2,5,5-trimethylhexanoic acid], the pKd is 5.70.
